Molecular target: T1, hen egg white lysozyme (HEWL) (Gallus gallus, UniProt P00698)
T1 construct: gene LYZ
Test: tryptophan fluorescence quenching
Type: binding
Details: 10 mM tris-HCl pH 7.5, room temperature; 10 µM HEWL, excitation 295 nm; double-log; fitted together with number of bound quencher molecules n
Description: tryptophan fluorescence quenching on hen egg white lysozyme (HEWL)

T1 sequence (P00698 19-147): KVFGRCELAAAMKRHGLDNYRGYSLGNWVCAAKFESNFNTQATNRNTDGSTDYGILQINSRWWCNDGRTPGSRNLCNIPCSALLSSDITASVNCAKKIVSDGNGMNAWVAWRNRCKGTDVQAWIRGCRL

| Substance | Ka [M⁻¹] |
| --- | --- |
| Cu^IIWD | 6.76e+08 |
| α2WD | 6.91e+08 |
